# Results from US10597388B2, “Pyridazinone herbicides” (FMC CORPORATION, priority 2014, dated 2020).
# How the values were obtained:
# Assay in all cases: Test C greenhouse herbicide test, pre- and postemergence
# Type in all cases: in vivo
# [1] = test system: nutsedge, yellow (yellow nutsedge, Cyperus esculentus); details: Preemergence; for Plant response rating, Nutsedge, Yellow: scale 0 to 100, 0 is no effect, 100 is complete control
# In short: (§1)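 Seeds sown in loam–sand blend treated preemergence; plants in peat-based medium sprayed postemergence at 2–18 cm (1- to 4-leaf stage); chemicals in non-phytotoxic solvent with surfactant. Greenhouse 13–15 d, then visual rating versus controls on 0–100 scale (0 no effect, 100 complete control).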
# [2] = test system: crabgrass, large (large crabgrass, Digitaria sanguinalis)
# In short: as §1
# [3] = test system: soybean (Glycine max)
# In short: as §1
# [4] = test system: galium (catchweed bedstraw, Galium aparine)
# In short: as §1
# [5] = test system: lambsquarters (Chenopodium album)
# In short: as §1
# [6] = test system: corn (Zea mays)
# In short: as §1
# [7] = test system: ryegrass, Italian (Italian ryegrass, Lolium multiflorum)
# In short: as §1
# [8] = test system: blackgrass (Alopecurus myosuroides)
# In short: as §1
# [9] = test system: foxtail, giant (giant foxtail, Setaria faberii)
# In short: as §1
# [10] = test system: ragweed (common ragweed, Ambrosia elatior)
# In short: as §1
# [11] = test system: barnyardgrass (Echinochloa crus-galli)
# In short: as §1
# [12] = test system: pigweed (Amaranthus retroflexus)
# In short: as §1
# [13] = test system: oilseed rape (Brassica napus)
# In short: as §1
# [14] = test system: wheat (winter wheat, Triticum aestivum)
# In short: as §1
# [15] = test system: velvetleaf (Abutilon theophrasti)
# In short: as §1
# [16] = Postemergence, 31 g ai/ha, 0 to 100 scale (0 no effect, 100 complete control)
# [17] = Postemergence, 125 g ai/ha, scale 0 to 100, 0 is no effect, 100 is complete control
# [18] = Postemergence, 250 g ai/ha, scale 0 to 100, 0 no effect, 100 complete control, 13 to 15 d
# [19] = Preemergence, 31 g ai/ha, scale 0 to 100, 0 is no effect, 100 is complete control
# [20] = Preemergence, 62 g ai/ha, scale 0 to 100, 0 is no effect, 100 is complete control
# [21] = Preemergence, 125 g ai/ha, scale 0 to 100, 0 is no effect, 100 is complete control
# [22] = Preemergence, 250 g ai/ha, scale 0 to 100, 0 no effect, 100 complete control
# [23] = postemergence, 62 g ai/ha, scale 0 to 100, 0 no effect, 100 complete control
compound,measurement,setting,value
"CCc1oc2ccc(C)cc2c1-c1c(O)c(C)nn(C)c1=O [Compound 10, 4-(2-ethyl-5-methyl-3-benzofuranyl)-5-hydroxy-2,6-dimethyl-3(2H)-pyridazinone]","Plant response rating, Nutsedge, Yellow",[1]; 31 g ai/ha,0
same,"Plant response rating, Nutsedge, Yellow",[1]; 62 g ai/ha,0
same,"Plant response rating, Nutsedge, Yellow",[1]; 125 g ai/ha,0
same,"Nutsedge, Yellow plant response rating","[1]; 250 g ai/ha, scale 0 to 100, 0 no effect, 100 complete control",0
same,"Crabgrass, Large plant response rating",[2]; [16],10
same,"Plant response rating, Crabgrass, Large",[2]; [17],65
same,"Plant response rating, Crabgrass, Large",[2]; [18],75
same,"Plant response rating, Crabgrass, Large",[2]; [19],0
same,"Plant response rating, Crabgrass, Large",[2]; [20],0
same,"Plant response rating, Crabgrass, Large",[2]; [21],0
same,"Crabgrass, Large plant response rating",[2]; [22],0
same,"Crabgrass, Large plant response rating",[2]; [23],30
same,Soybean plant response rating,[3]; [16],0
same,"Plant response rating, Soybean",[3]; [17],0
same,"Plant response rating, Soybean",[3]; [18],0
same,"Plant response rating, Soybean",[3]; [20],0
same,"Plant response rating, Soybean",[3]; [21],0
same,Soybean plant response rating,[3]; [22],0
same,Soybean plant response rating,[3]; [23],0
same,Galium plant response rating,[4]; [16],5
same,"Plant response rating, Galium",[4]; [17],70
same,"Plant response rating, Galium",[4]; [18],85
same,"Plant response rating, Galium",[4]; [19],0
same,"Plant response rating, Galium",[4]; [20],5
same,"Plant response rating, Galium",[4]; [21],5
same,Galium plant response rating,[4]; [22],45
same,Galium plant response rating,[4]; [23],50
same,Lambsquarters plant response rating,[5]; [16],50
same,"Plant response rating, Lambsquarters",[5]; [17],65
same,"Plant response rating, Lambsquarters",[5]; [18],98
same,"Plant response rating, Lambsquarters",[5]; [19],0
same,"Plant response rating, Lambsquarters",[5]; [20],0
same,Lambsquarters plant response rating,[5]; [22],30
same,Lambsquarters plant response rating,[5]; [23],80
same,Corn plant response rating,[6]; [16],0
same,"Plant response rating, Corn",[6]; [17],5
same,"Plant response rating, Corn",[6]; [18],5
same,"Plant response rating, Corn",[6]; [19],0
same,"Plant response rating, Corn",[6]; [20],0
same,"Plant response rating, Corn",[6]; [21],0
same,Corn plant response rating,[6]; [22],5
same,Corn plant response rating,[6]; [23],0
same,"Ryegrass, Italian plant response rating",[7]; [16],5
same,"Plant response rating, Ryegrass, Italian",[7]; [17],20
same,"Plant response rating, Ryegrass, Italian",[7]; [18],55
same,"Plant response rating, Ryegrass, Italian",[7]; [19],0
same,"Plant response rating, Ryegrass, Italian",[7]; [20],0
same,"Plant response rating, Ryegrass, Italian",[7]; [21],25
same,"Ryegrass, Italian plant response rating",[7]; [22],80
same,"Ryegrass, Italian plant response rating",[7]; [23],5
same,Blackgrass plant response rating,[8]; [16],0
same,"Plant response rating, Blackgrass",[8]; [17],10
same,"Plant response rating, Blackgrass",[8]; [18],15
same,"Plant response rating, Blackgrass",[8]; [19],0
same,"Plant response rating, Blackgrass",[8]; [20],0
same,"Plant response rating, Blackgrass",[8]; [21],0
same,Blackgrass plant response rating,[8]; [22],0
same,Blackgrass plant response rating,[8]; [23],0
same,"Foxtail, Giant plant response rating",[9]; [16],70
same,"Plant response rating, Foxtail, Giant",[9]; [17],50
same,"Plant response rating, Foxtail, Giant",[9]; [18],90
same,"Plant response rating, Foxtail, Giant",[9]; [19],0
same,"Plant response rating, Foxtail, Giant",[9]; [20],0
same,"Plant response rating, Foxtail, Giant",[9]; [21],0
same,"Foxtail, Giant plant response rating",[9]; [22],0
same,"Foxtail, Giant plant response rating",[9]; [23],60
same,Ragweed plant response rating,[10]; [16],5
same,"Plant response rating, Ragweed",[10]; [17],70
same,"Plant response rating, Ragweed",[10]; [18],98
same,"Plant response rating, Ragweed",[10]; [19],0
same,"Plant response rating, Ragweed",[10]; [20],0
same,"Plant response rating, Ragweed",[10]; [21],0
same,Ragweed plant response rating,[10]; [22],5
same,Ragweed plant response rating,[10]; [23],30
same,Barnyardgrass plant response rating,[11]; [16],35
same,"Plant response rating, Barnyardgrass",[11]; [17],90
same,"Plant response rating, Barnyardgrass",[11]; [18],98
same,"Plant response rating, Barnyardgrass",[11]; [19],0
same,"Plant response rating, Barnyardgrass",[11]; [20],5
same,"Plant response rating, Barnyardgrass",[11]; [21],5
same,Barnyardgrass plant response rating,[11]; [22],5
same,Barnyardgrass plant response rating,[11]; [23],90
same,Pigweed plant response rating,[12]; [16],55
same,"Plant response rating, Pigweed",[12]; [17],70
same,"Plant response rating, Pigweed",[12]; [18],95
same,"Plant response rating, Pigweed",[12]; [19],0
same,"Plant response rating, Pigweed",[12]; [20],0
same,"Plant response rating, Pigweed",[12]; [21],10
same,Pigweed plant response rating,[12]; [22],30
same,Pigweed plant response rating,[12]; [23],60
same,Oilseed Rape plant response rating,[13]; [16],0
same,"Plant response rating, Oilseed Rape",[13]; [17],0
same,"Plant response rating, Oilseed Rape",[13]; [18],0
same,"Plant response rating, Oilseed Rape",[13]; [19],0
same,"Plant response rating, Oilseed Rape",[13]; [20],0
same,"Plant response rating, Oilseed Rape",[13]; [21],0
same,Oilseed Rape plant response rating,[13]; [22],0
same,Oilseed Rape plant response rating,[13]; [23],0
same,Wheat plant response rating,[14]; [16],0
same,"Plant response rating, Wheat",[14]; [17],0
same,"Plant response rating, Wheat",[14]; [18],0
same,"Plant response rating, Wheat",[14]; [20],0
same,"Plant response rating, Wheat",[14]; [21],0
same,Wheat plant response rating,[14]; [22],0
same,Wheat plant response rating,[14]; [23],0
same,Velvetleaf plant response rating,[15]; [16],40
same,"Plant response rating, Velvetleaf",[15]; [17],40
same,"Plant response rating, Velvetleaf",[15]; [18],70
same,"Plant response rating, Velvetleaf",[15]; [20],0
same,"Plant response rating, Velvetleaf",[15]; [21],10
same,Velvetleaf plant response rating,[15]; [22],50
same,Velvetleaf plant response rating,[15]; [23],45
